Results published in patent publication US20240368104A1, “Novel Dialkoxynaphtho[2,3-C]Furan-1(3H)-One Derivatives and Pharmaceutical Composition For Preventing or Treating Respiratory Disease or SARS-COV-2 Infection Disease, Comprising Same” (priority 2021, published 2024).
pIC50: −log10 of the molar value. Where two headings read alike, the source gives them in different places.

Columns and labels:
[1] = in vitro; details: African green monkey
[2] = tested on: SARS-COV-2; test: microbe, parasite or virus in culture; assay type: cell-based; parameters: SI (Selectivity Index, CC50/IC50): unit not given here; details: for SI (Selectivity Index, CC50/IC50): SARS-COV-2, values >50 assumed to be 50; for pIC50: read-out: SARS-COV-2 inhibition (IC50)
[3] = Severe acute respiratory syndrome coronavirus 2, Vero, 24 h
[4] = Severe acute respiratory syndrome coronavirus 2, Vero cells, 24 hours infection

Row | SMILES | CC50 [1] [µM] | SI (Selectivity Index, CC50/IC50) [2] | pIC50 [2, 3] | pIC50 [2, 4]
1 | CCN(c1ncc(-c2c3c(cc4cc(OC)c(OC)cc24)COC3=O)cn1)C1CCCCC1.Cl [Example 78, 9-(2-(cyclohexyl(ethyl)amino)pyrimidin-5-yl)-6,7-dimethoxynaphtho[2,3-c]furan-1(3H)-one hydrochloride] | > 50 | 18.80 | 5.58 | 
2 | COc1cc2cc3c(c(-c4cnc(N(C)[C@H]5CCc6c(cccc6OC)C5)nc4)c2cc1OC)C(=O)OC3.Cl [Example 96, (S)-6,7-dimethoxy-9-(2-((5-methoxy-1,2,3,4-tetrahydronaphthalen-2-yl)(methyl)amino)pyrimidin-5-yl)naphtho[2,3-c]furan-1(3H)-one hydrochloride] | > 50 | 27.11 | 5.74 | 
3 | CCN(C)c1ccc(-c2c3c(cc4cc(OC)c(OC)cc24)COC3=O)cc1 [Example 248, 9-(4-(ethyl(methyl)amino)phenyl)-6,7-dimethoxynaphtho[2,3-c]furan-1(3H)-one] | > 50 | 344.5 |  | > 7.01
4 | COc1cc2cc3c(c(-c4ccc(N(C)c5ccccc5)nc4)c2cc1OC)C(=O)OC3 [Example 222, 6,7-dimethoxy-9-(6-(methyl(phenyl)amino)pyridin-3-yl)naphtho[2,3-c]furan-1(3H)-one] | > 50 | 162.21 |  | 6.51
5 | COCCN(CCOC)c1ncc(-c2c3c(cc4cc(OC)c(OC)cc24)COC3=O)cn1 [Example 72, 9-(2-(bis(2-methoxyethyl)amino)pyrimidin-5-yl)-6,7-dimethoxynaphtho[2,3-c]furan-1(3H)-one] | > 50 | 1.64 |  | 4.52
6 | COc1cc2cc3c(c(-c4cnc(N5CC(C)CC(C)C5)nc4)c2cc1OC)C(=O)OC3 (stereo not drawn) [Example 57, 9-(2-(3,5-dimethylpiperidin-1-yl)pyrimidin-5-yl)-6,7-dimethoxynaphtho[2,3-c]furan-1(3H)-one] | > 50 | 12.07 |  | 5.38
7 | COc1cc2cc3c(c(-c4cc5c(cc4OC(=O)OC4CCCCC4)OCO5)c2cc1OC)C(=O)OC3 [Example 99, cyclohexyl (6-(6,7-dimethoxy-3-oxo-1,3-dihydronaphtho[2,3-c]furan-4-yl)benzo[d][1,3]dioxol-5-yl)carbonate] | > 50 | 8.70 |  | 5.24
8 | COc1cc2cc3c(c(-c4ccc5cc(C(F)(F)F)cc(O)c5c4)c2cc1OC)C(=O)OC3 [Example 153, 9-(8-hydroxy-6-(trifluoromethyl)naphthalen-2-yl)-6,7-dimethoxynaphtho[2,3-c]furan-1(3H)-one] | > 50 | 1.0 |  | < 4.30
9 | COc1cc2cc3c(c(-c4cc(C)nc5c(F)cc(F)cc45)c2cc1OC)C(=O)OC3 [Example 139, 9-(6,8-difluoro-2-methylquinolin-4-yl)-6,7-dimethoxynaphtho[2,3-c]furan-1(3H)-one] | > 50 | 1.0 |  | < 4.30
10 | COc1cc2cc3c(c(-c4cncc(OC(C)C)c4)c2cc1OC)C(=O)OC3 [Example 200, 9-(5-isopropoxypyridin-3-yl)-6,7-dimethoxynaphtho[2,3-c]furan-1(3H)-one] | > 50 | 1.77 |  | 4.55
11 | COc1cc2cc3c(c(N4CCN(CCO)CC4)c2cc1OC)C(=O)OC3 [Example 144, 9-(4-(2-hydroxyethyl)piperazin-1-yl)-6,7-dimethoxynaphtho[2,3-c]furan-1(3H)-one] | > 50 | 1.0 |  | < 4.30
12 | COc1cc2cc3c(c(-c4ccc(N5CCOCC5)cc4)c2cc1OC)C(=O)OC3.Cl [Example 245, 6,7-dimethoxy-9-(4-morpholinophenyl)naphtho[2,3-c]furan-1(3H)-one] | > 50 | 1.00 | < 4.30 | 
13 | CCN(Cc1cccnc1)c1ccc(-c2c3c(cc4cc(OC)c(OC)cc24)COC3=O)cc1 [Example 254, 9-(4-(ethyl(pyridin-3-ylmethyl)amino)phenyl)-6,7-dimethoxynaphtho[2,3-c]furan-1(3H)-one] | > 50 | 12.17 |  | 5.39
14 | COc1ccc(CN(C)c2ccc(-c3c4c(cc5cc(OC)c(OC)cc35)COC4=O)cn2)c(OC)c1.Cl [Example 232, 9-(6-((2,4-dimethoxybenzyl)(methyl)amino)pyridin-3-yl)-6,7-dimethoxynaphtho[2,3-c]furan-1(3H)-one] | > 50 | 15.36 | 5.49 | 
15 | COc1cc2cc3c(c(-c4ccc(Cl)nc4)c2cc1OC)C(=O)OC3 [Example 185, 9-(6-chloropyridin-3-yl)-6,7-dimethoxynaphtho[2,3-c]furan-1(3H)-one] | > 50 | 149.26 |  | 6.48
16 | CCC(C)N(C)c1ncc(-c2c3c(cc4cc(OC)c(OC)cc24)COC3=O)cn1.Cl (stereo not drawn) [Example 100, 9-(2-(sec-butyl(methyl)amino)pyrimidin-5-yl)-6,7-dimethoxynaphtho[2,3-c]furan-1(3H)-one hydrochloride] | > 50 | 96.21 | 6.28 | 
17 | COc1cc2cc3c(c(-c4ccc(N(C)C)c([N+](=O)[O-])c4)c2cc1OC)C(=O)OC3.Cl [Example 217, 9-(4-(dimethylamino)-3-nitrophenyl)-6,7-dimethoxynaphtho[2,3-c]furan-1(3H)-one] | > 50 | 10.06 | 5.30 | 
18 | COc1cc2cc3c(c(-c4ccc(N(C)CC5CC5)nc4)c2cc1OC)C(=O)OC3.Cl [Example 183, 9-(6-((cyclopropylmethyl)(methyl)amino)pyridin-3-yl)-6,7-dimethoxynaphtho[2,3-c]furan-1(3H)-one] | > 50 | 124.83 | 6.40 | 
19 | COc1cc2cc3c(c(-c4ccc(N5CCC(N(C)C)CC5)nc4)c2cc1OC)C(=O)OC3.Cl [Example 238, 9-(6-(4-(dimethylamino)piperidin-1-yl)pyridin-3-yl)-6,7-dimethoxynaphtho[2,3-c]furan-1(3H)-one] | > 50 | 2.84 | 4.75 | 
20 | COc1cc2cc3c(c(N4CCN(c5cc(Cl)nc(SC)n5)CC4)c2cc1OC)C(=O)OC3 [Example 130, 9-(4-(6-chloro-2-(methylthio)pyrimidin-4-yl)pilerazin-1-yl)-6,7-dimethoxynaphtho[2,3-c]furan-1(3H)-one] | > 50 | 1.0 |  | < 4.30
21 | COc1cc2cc3c(c(-c4ccc5nccc(O)c5c4)c2cc1OC)C(=O)OC3 [Example 117, 9-(4-hydroxyquinolin-6-yl)-6,7-dimethoxynaphtho[2,3-c]furan-1(3H)-one] | > 50 | 1.0 |  | < 4.30
22 | COc1cc2cc3c(c(-c4cc5c(cc4OC(=O)OC(C)C)OCO5)c2cc1OC)C(=O)OC3 [Example 98, 6-(6,7-dimethoxy-3-oxo-1,3-dihydronaphtho[2,3-c]furan-4-yl)benzo[d][1,3]dioxol-5-yl isopropyl carbonate] | > 50 | 3.18 |  | 4.80
23 | CCN(c1ncc(-c2c3c(cc4cc(OC)c(OC)cc24)COC3=O)cn1)C1CCCC1.Cl [Example 92, 9-(2-(cyclopentyl(ethyl)amino)pyrimidin-5-yl)-6,7-dimethoxynaphtho[2,3-c]furan-1(3H)-one hydrochloride] | > 50 | 42.34 | 5.93 | 
24 | COc1cc2cc3c(c(-c4ccnc5c(F)cccc45)c2cc1OC)C(=O)OC3 [Example 137, 9-(8-fluoroquinolin-4-yl)-6,7-dimethoxynaphtho[2,3-c]furan-1(3H)-one] | > 50 | 1.0 |  | < 4.30
25 | COc1cc2cc3c(c(-c4ccc(N(C)C(=O)C(C)(C)C)nc4)c2cc1OC)C(=O)OC3 [Example 233, N-(5-(6,7-dimethoxy-3-oxo-1,3-dihydronaphtho[2,3-c]furan-4-yl)pyridin-2-yl)-N-methylpivalamide] | > 50 | 1.00 |  | < 4.30
26 | COc1cc2cc3c(c(-c4ccc5occc5c4)c2cc1OC)C(=O)OC3 [Example 52, 9-(benzofuran-5-yl)-6,7-dimethoxynaphtho[2,3-c]furan-1(3H)-one] | > 50 | 35.13 |  | 5.85
27 | COc1cc2cc3c(c(-c4ccc(N(C)c5ccc(S)cc5)nc4)c2cc1OC)C(=O)OC3.Cl [Example 239, 9-(6-((4-mercaptophenyl)(methyl)amino)pyridin-3-yl)-6,7-dimethoxynaphtho[2,3-c]furan-1(3H)-one] | > 50 | 1.00 | < 4.30 | 
28 | COc1cc2cc3c(c(-c4cnc(N5C[C@@H](C)O[C@@H](C)C5)nc4)c2cc1OC)C(=O)OC3 [Example 8, 9-(2-((2S,6R)-2,6-dimethylmorpholino)pyrimidin-5-yl)-6,7-dimethoxynaphtho[2,3-c]furan-1(3H)-one] | > 50 | 17.39 |  | 5.54
29 | COc1cc2cc(CO)c(C(=O)Cl)c(-c3cc4c(cc3O)OCO4)c2cc1OC [Example 224, 1-(6-hydroxybenzo[d][1,3]dioxol-5-yl)-3-(hydroxymethyl)-6,7-dimethoxy-2-naphthoyl chloride] | > 50 | 2.63 |  | 5.72
30 | COc1cc2cc3c(c(-c4cc(C)nc5c(OC)cccc45)c2cc1OC)C(=O)OC3 [Example 149, 6,7-dimethoxy-9-(8-methoxy-2-methylquinolin-4-yl)naphtho[2,3-c]furan-1(3H)-one] | > 50 | 1.0 |  | < 4.30
